± gives the expanded uncertainty stated by the source.
Test: molar enthalpy of vaporization or sublimation
Details: Liquid, Thermogravimetric Analysis

Compound	molar enthalpy (541.8 K)	further results
CCCCCCCCCCCCCCn1cc[n+](C)c1.O=S(=O)([N-]S(=O)(=O)C(F)(F)F)C(F)(F)F	31.7 ± 0.717 kcal/mol	–
CCCC[n+]1ccn(C)c1.O=S(=O)([N-]S(=O)(=O)C(F)(F)F)C(F)(F)F	27.1 ± 0.717 kcal/mol	–
CCCCCCCCCCCCn1cc[n+](C)c1.O=S(=O)([N-]S(=O)(=O)C(F)(F)F)C(F)(F)F	–	molar enthalpy (533.5 K): 30.1 ± 0.717 kcal/mol
CCCCCCCCn1cc[n+](C)c1.O=S(=O)([N-]S(=O)(=O)C(F)(F)F)C(F)(F)F	29.3 ± 0.717 kcal/mol	–
CCCCCC[n+]1ccn(C)c1.O=S(=O)([N-]S(=O)(=O)C(F)(F)F)C(F)(F)F	28.2 ± 0.717 kcal/mol	–
CCCCCCCCCCn1cc[n+](C)c1.O=S(=O)([N-]S(=O)(=O)C(F)(F)F)C(F)(F)F	–	molar enthalpy (522 K): 29.9 ± 0.717 kcal/mol
CCCCCCCCCCCCCCCCn1cc[n+](C)c1.O=S(=O)([N-]S(=O)(=O)C(F)(F)F)C(F)(F)F	32.6 ± 0.717 kcal/mol	–
CCCCCCCCCCCCCCCCCC[n+]1ccn(C)c1.O=S(=O)([N-]S(=O)(=O)C(F)(F)F)C(F)(F)F	–	molar enthalpy (582.5 K): 33.1 ± 0.717 kcal/mol

From the NIST ThermoML archive (doi:10.1016/j.jct.2012.05.029)
